In patent US20250243196A1, “CITRON KINASE INHIBITORS” (The Cleveland Clinic Foundation, priority 2021, published 2025) one finds IC50 and Kd data, which are given here for 1 compound.

One experiment concerns the target PKAα (Homo sapiens (Human), UniProt P17612). The experiment is described as follows: KinaseProfiler radiometric assay (14-440KP). It counts as biochemical. The note with it: mean of at least two independent experiments. The text has this:
(§1) In another aspect, disclosed is a method of inhibiting citron kinase in a sample, comprising contacting the sample with a compound described herein (e.g., a compound of formula (I) or a pharmaceutically acceptable salt thereof), or a pharmaceutical composition described herein (e.g., a pharmaceutical composition comprising a compound of formula (I) or a pharmaceutically acceptable salt thereof), in an amount effective to inhibit citron kinase. In some embodiments, the step of contacting the sample with the compound comprises administering the compound to a subject (e.g., a subject) suffering from cancer. Methods of determining kinase inhibition are well known in the art. For example, kinase activity of an enzyme and the inhibitory capacity of a test compound can be determined by measuring enzyme specific phosphorylation of a substrate. Commercial assays and kits can be employed. For example, kinase inhibition can be determined using a radiometric binding assay, such as using KinaseProfiler™ technology (Eurofins Discovery). This assay method directly detects product formation without the use of modified substrates or coupling enzymes. Test compounds are incubated with kinase, substrate, required cofactors and radioisotope labeled ATP. Following incubation, unreacted radioactive ATP is removed by washing and incorporation of the radiolabeled phosphate into the kinase substrate is assayed to detect phosphoryltransferase activity, which is directly proportional to the amount of phosphorylated substrate. Inhibition of the kinase by a kinase inhibitor prevents phosphorylation of the substrate and thereby limits the incorporation of radiolabeled phosphate. Such an assay is compatible with a microwell assay format, allowing simultaneous determination of IC50 of multiple compounds.
(§2) The effect of various compounds on the inhibition of other kinases has also been determined. Table 2 reports measured IC50 values; value units are nanomolar inhibition.

In a further experiment the target is BIKE (Homo sapiens (Human), UniProt Q9NSY1). Description: KinaseProfiler radiometric assay (16-044KP). It counts as biochemical. The note with it: mean of at least two independent experiments.
Sequence of BIKE (Q9NSY1 whole entry): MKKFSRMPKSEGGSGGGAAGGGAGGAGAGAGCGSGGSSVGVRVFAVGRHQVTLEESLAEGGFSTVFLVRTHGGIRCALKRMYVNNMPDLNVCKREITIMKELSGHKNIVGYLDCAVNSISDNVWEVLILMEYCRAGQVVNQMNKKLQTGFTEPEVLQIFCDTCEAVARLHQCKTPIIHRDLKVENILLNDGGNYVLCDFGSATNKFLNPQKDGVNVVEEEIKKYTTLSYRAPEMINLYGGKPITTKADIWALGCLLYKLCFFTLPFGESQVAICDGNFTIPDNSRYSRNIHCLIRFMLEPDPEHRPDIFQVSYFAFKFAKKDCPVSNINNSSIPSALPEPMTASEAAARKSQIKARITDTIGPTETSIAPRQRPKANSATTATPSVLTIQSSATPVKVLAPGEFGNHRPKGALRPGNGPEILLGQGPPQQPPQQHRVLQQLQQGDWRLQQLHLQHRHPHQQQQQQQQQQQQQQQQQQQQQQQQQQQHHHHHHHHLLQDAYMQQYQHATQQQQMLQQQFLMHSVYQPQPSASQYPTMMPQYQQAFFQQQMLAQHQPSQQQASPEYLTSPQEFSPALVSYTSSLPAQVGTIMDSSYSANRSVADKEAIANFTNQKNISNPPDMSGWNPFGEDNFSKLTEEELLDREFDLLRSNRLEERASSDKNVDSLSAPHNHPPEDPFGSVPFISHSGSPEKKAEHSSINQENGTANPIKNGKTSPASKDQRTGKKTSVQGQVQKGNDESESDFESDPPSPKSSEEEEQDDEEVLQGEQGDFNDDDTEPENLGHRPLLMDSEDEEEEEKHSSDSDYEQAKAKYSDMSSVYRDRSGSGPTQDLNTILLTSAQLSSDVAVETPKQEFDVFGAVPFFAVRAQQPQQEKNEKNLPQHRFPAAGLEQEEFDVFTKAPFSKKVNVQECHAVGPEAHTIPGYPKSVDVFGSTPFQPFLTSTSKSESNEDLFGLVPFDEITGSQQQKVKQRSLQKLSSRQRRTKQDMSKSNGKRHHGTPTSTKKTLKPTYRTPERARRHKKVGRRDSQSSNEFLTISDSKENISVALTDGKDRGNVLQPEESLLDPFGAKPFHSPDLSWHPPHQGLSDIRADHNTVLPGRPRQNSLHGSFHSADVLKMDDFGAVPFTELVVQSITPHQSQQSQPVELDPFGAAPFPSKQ
From the text: as §1, with “Test compounds are incubated with kinase, substrate, required cofactors and radioisotope labeled ATP. Following incubation, unreacted radioactive ATP is removed by washing and incorporation of the radiolabeled phosphate into the kinase substrate is assayed to detect phosphoryltransferase activity, which is directly proportional to the amount of phosphorylated substrate. Inhibition of the kinase by a kinase inhibitor prevents phosphorylation of the substrate and thereby limits the incorporation of radiolabeled phosphate. Such an assay is compatible with a microwell assay format, allowing simultaneous determination of IC50 of multiple compounds.” left out
as §2

The target of another experiment is ACK1 (Homo sapiens (Human), UniProt Q07912). The experiment is described as follows: KinaseProfiler radiometric assay (14-756KP). It counts as biochemical. The following applies: mean of at least two independent experiments.
From the text: as §1, with “In” for “In another aspect, disclosed is a method of inhibiting citron kinase in a sample, comprising contacting the sample with a compound described herein (e.g., a compound of formula (I) or a pharmaceutically acceptable salt thereof), or a pharmaceutical composition described herein (e.g., a pharmaceutical composition comprising a compound of formula (I) or a pharmaceutically acceptable salt thereof), in an amount effective to inhibit citron kinase. In”

For another experiment, the target named is HIPK4 (Homo sapiens (Human), UniProt Q8NE63). Description: KinaseProfiler radiometric assay (15-003KP). It counts as biochemical. The following applies: mean of at least two independent experiments.
From the text: as §1, with “Test compounds are incubated with kinase, substrate, required cofactors and radioisotope labeled ATP. Following incubation, unreacted radioactive ATP is removed by washing and incorporation of the radiolabeled phosphate into the kinase substrate is assayed to detect phosphoryltransferase activity, which is directly proportional to the amount of phosphorylated substrate. Inhibition of the kinase by a kinase inhibitor prevents phosphorylation of the substrate and thereby limits the incorporation of radiolabeled phosphate. Such an assay is compatible with a microwell assay format, allowing simultaneous determination of IC50 of multiple compounds.” left out
as §2

The target of another experiment is AAK1 (Homo sapiens (Human), UniProt Q2M2I8). The experiment is described as follows: KinaseProfiler radiometric assay (16-043KP). It counts as biochemical. The following applies: mean of at least two independent experiments.
From the text: as §1, with “Test compounds are incubated with kinase, substrate, required cofactors and radioisotope labeled ATP. Following incubation, unreacted radioactive ATP is removed by washing and incorporation of the radiolabeled phosphate into the kinase substrate is assayed to detect phosphoryltransferase activity, which is directly proportional to the amount of phosphorylated substrate. Inhibition of the kinase by a kinase inhibitor prevents phosphorylation of the substrate and thereby limits the incorporation of radiolabeled phosphate. Such an assay is compatible with a microwell assay format, allowing simultaneous determination of IC50 of multiple compounds.” left out
as §2

A further experiment addresses IKKβ (Homo sapiens (Human), UniProt O14920). Description: KinaseProfiler radiometric assay (14-485KP). It counts as biochemical. The following applies: mean of at least two independent experiments.
From the text: as §1, §2

A further experiment concerns the target DRAK2 (Homo sapiens (Human), UniProt O94768). Description: KinaseProfiler radiometric assay (16-003KP). It counts as biochemical. The following applies: mean of at least two independent experiments.
From the text: as §1, with “In” for “In another aspect, disclosed is a method of inhibiting citron kinase in a sample, comprising contacting the sample with a compound described herein (e.g., a compound of formula (I) or a pharmaceutically acceptable salt thereof), or a pharmaceutical composition described herein (e.g., a pharmaceutical composition comprising a compound of formula (I) or a pharmaceutically acceptable salt thereof), in an amount effective to inhibit citron kinase. In”

The next experiment concerns the target Citron kinase (Homo sapiens (Human), UniProt O14578). Description: Radiometric citron kinase assay (Eurofins Cat #16-040KP). It counts as biochemical. The note with it: mean of at least two independent assays; read-out: Radiometric CitK IC50. An outline of the steps: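 Radiometric KinaseProfiler format: test compound incubated with kinase, substrate, cofactors and radiolabelled ATP; unreacted ATP washed away and radiolabelled phosphate incorporated into substrate measured. IC50 derived from inhibition of phosphorylation. Values are means of at least two independent assays.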

In another experiment the target is ROCK-2 (Homo sapiens (Human), UniProt O75116). The experiment is described as follows: KinaseProfiler radiometric assay (14-451KP). It counts as biochemical. The following applies: mean of at least two independent experiments.
Sequence of ROCK-2 (O75116 whole entry): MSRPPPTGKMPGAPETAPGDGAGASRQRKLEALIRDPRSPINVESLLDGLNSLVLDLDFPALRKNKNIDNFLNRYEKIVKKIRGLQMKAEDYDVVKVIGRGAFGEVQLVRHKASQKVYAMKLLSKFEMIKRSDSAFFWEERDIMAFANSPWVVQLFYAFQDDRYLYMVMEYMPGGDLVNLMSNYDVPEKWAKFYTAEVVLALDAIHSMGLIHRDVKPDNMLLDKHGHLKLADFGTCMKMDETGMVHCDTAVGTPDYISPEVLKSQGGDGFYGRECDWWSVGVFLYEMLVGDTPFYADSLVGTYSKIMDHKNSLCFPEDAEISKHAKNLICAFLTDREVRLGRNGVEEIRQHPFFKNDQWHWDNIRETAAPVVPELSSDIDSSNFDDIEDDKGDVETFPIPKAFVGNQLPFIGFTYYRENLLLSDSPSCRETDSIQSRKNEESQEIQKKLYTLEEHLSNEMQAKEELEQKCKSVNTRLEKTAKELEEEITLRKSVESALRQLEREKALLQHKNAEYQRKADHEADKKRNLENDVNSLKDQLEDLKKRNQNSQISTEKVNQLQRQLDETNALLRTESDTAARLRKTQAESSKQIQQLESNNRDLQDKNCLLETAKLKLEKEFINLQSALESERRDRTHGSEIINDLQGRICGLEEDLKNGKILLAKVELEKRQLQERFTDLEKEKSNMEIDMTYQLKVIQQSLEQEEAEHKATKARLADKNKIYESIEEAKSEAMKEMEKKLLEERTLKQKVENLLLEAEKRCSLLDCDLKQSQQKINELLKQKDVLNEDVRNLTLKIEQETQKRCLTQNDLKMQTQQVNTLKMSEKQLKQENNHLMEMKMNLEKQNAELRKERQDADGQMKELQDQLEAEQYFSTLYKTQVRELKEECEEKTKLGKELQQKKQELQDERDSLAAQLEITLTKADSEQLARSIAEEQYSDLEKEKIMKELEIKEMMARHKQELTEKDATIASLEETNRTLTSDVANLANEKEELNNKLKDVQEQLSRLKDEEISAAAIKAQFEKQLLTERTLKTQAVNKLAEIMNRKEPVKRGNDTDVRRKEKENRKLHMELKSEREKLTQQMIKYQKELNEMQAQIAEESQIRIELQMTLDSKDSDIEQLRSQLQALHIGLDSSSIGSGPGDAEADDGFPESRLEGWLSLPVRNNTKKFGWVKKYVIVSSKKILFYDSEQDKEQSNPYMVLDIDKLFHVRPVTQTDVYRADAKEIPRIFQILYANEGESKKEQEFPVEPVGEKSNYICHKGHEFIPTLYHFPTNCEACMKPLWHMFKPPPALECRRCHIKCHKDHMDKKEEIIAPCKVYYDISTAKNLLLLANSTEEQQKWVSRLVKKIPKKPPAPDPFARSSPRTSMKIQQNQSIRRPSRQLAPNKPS
From the text: as §1, §2

Experiment [1] has as its target NanoLuc-CITK (full-length human CITK) (Homo sapiens (Human), UniProt O14578). The experiment is described as follows: NanoBRET intracellular target engagement assay. It counts as cell-based. The procedure: In-cell Kd values were evaluated with a NanoBRET Target Engagement Assay essentially as recommended by the manufacturer (Promega Corporation—for details see https://www.promega.com/resources/technologies/nanoluc-luciferase-enzyme/cellular-target-engagement/).
HEK293T cells were transfected with 5.0 μg/mL sterile NanoLuc-CITK DNA, 5.0 μg/mL Transfection Carrier DNA, and 30 μL/mL FugeneHD® (Promega) in Opti-Mem™ (Thermo) media at a cell density of 250,000 cells/mL. […] 5 μL of the 25× Tracer K10 solution was added to each well. Next, designated inhibitors were prepared from powder as 10 mM DMSO stocks and then further diluted to 10× the final assay concentration in Opti-Mem™. 12-pt dose-response curves were prepared by 3×-serial dilution. […] A 3× Complete Substrate+Inhibitor solution, containing 6 mL of Opti-Mem™, 36 μL of NanoBRET Nano-Glo Substrate, and 12 μL Extracellular NanoLuc Inhibitor was freshly prepared for each plate. 50 μL of the 3× Complete Substrate+Inhibitor solution was added to all wells and the plate was incubated for 2 min with 500 RPM shaking. The bottom of the plates were covered with black plate seals and then measured on a Cytation 5 plate reader (Biotek) with a NanoBRET Filter Cube (Biotek; 450/50 emission & 610LP emission). Background corrected BRET ratios (in mBU) were calculated in Excel and IC50's were subsequently extracted using four-parameter non-linear regression in GraphPad Prism 8.
A general note: Bioluminescence resonance energy transfer reports proximity on the nanometre scale.

The next experiment concerns the target Mnk2 (Homo sapiens (Human), UniProt Q9HBH9). The experiment is described as follows: KinaseProfiler radiometric assay (14-664KP). The note with it: mean of at least two independent experiments. It counts as biochemical.
From the text: as §1, with “Test compounds are incubated with kinase, substrate, required cofactors and radioisotope labeled ATP. Following incubation, unreacted radioactive ATP is removed by washing and incorporation of the radiolabeled phosphate into the kinase substrate is assayed to detect phosphoryltransferase activity, which is directly proportional to the amount of phosphorylated substrate. Inhibition of the kinase by a kinase inhibitor prevents phosphorylation of the substrate and thereby limits the incorporation of radiolabeled phosphate. Such an assay is compatible with a microwell assay format, allowing simultaneous determination of IC50 of multiple compounds.” left out
as §2

Sequence of NanoLuc-CITK (full-length human CITK) (O14578 other isoform, or with tags, fused parts or gaps): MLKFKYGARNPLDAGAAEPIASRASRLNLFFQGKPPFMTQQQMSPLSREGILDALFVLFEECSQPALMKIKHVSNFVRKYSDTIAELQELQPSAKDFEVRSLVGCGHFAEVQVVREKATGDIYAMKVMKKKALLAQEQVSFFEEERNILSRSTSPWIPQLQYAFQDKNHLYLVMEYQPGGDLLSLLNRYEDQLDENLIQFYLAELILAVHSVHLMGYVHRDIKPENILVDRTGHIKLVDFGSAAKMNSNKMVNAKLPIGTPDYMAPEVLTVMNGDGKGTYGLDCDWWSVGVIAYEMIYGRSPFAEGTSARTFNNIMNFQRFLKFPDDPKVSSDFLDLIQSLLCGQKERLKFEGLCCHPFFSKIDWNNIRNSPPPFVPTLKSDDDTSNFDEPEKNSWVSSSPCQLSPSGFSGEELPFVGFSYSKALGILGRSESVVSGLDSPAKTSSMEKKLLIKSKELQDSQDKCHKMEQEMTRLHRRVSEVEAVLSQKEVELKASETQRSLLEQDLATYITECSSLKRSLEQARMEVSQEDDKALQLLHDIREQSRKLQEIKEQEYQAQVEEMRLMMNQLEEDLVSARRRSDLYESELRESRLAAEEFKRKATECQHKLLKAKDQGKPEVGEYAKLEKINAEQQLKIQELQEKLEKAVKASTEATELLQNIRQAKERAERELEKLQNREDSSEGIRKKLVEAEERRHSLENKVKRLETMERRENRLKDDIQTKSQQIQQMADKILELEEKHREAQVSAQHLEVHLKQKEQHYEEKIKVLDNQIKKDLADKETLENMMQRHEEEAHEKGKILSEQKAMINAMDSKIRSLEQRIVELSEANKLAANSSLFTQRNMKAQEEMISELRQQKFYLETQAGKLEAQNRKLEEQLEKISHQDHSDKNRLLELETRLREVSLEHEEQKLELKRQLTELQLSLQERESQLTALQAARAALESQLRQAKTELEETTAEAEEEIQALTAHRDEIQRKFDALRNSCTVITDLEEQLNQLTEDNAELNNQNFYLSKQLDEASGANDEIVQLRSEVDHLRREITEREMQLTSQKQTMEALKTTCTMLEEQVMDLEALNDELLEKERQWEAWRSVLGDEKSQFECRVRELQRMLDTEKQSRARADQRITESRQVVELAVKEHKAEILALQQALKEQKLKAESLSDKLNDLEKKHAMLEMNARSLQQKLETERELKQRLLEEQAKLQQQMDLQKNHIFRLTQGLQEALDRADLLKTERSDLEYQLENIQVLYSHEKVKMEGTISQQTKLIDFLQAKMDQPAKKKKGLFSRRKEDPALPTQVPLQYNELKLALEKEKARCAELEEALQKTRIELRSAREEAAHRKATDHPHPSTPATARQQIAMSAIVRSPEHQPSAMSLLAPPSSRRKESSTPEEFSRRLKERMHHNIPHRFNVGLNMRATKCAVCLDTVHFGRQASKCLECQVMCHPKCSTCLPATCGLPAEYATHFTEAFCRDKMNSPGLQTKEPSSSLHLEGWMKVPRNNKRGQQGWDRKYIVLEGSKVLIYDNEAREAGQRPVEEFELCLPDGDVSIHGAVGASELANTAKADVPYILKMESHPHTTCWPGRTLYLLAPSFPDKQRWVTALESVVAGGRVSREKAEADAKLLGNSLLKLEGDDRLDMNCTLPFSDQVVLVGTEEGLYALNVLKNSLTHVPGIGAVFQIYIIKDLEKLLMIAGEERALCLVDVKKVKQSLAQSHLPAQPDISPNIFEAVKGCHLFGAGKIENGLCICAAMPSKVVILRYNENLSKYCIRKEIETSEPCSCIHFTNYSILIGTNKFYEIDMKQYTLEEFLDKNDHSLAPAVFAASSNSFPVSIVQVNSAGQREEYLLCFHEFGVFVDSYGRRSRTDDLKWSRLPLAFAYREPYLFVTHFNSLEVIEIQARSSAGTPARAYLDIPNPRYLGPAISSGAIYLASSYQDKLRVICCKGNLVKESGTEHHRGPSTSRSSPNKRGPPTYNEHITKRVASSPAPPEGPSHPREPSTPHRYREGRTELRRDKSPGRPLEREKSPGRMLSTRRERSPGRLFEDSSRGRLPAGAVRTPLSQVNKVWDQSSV
Sequence of DRAK2 (O94768 whole entry): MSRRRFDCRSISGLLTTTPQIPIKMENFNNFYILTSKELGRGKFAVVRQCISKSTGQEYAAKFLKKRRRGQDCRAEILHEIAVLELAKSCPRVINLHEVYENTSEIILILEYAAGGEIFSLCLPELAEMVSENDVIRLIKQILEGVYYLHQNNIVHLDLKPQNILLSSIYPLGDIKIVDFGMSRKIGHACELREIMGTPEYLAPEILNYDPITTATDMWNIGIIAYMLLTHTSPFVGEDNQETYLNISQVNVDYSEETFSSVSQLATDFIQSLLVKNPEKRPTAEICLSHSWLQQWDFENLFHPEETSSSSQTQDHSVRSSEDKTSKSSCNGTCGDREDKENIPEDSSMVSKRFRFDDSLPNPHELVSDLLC

Regarding `Cc1cc2c(-c3ccc(NC(=O)[C@H](N)C(C)(C)O)cc3C)ccnc2[nH]1` [Compound F-140, (2R)-2-Amino-3-hydroxy-3-methyl-N-[3-methyl-4-(2-methyl-1H-pyrrolo[2,3-b]pyridin-4-yl)phenyl]butanamide], the IC50 (as a rule, the midpoint of a concentration-inhibition curve) against PKAα was over 3000 nM; against BIKE it was over 3000 nM; at ACK1, over 3000 nM; at HIPK4 it was over 3000 nM; against AAK1 it was 1910 nM; against IKKβ, over 3000 nM. Besides, the IC50 on DRAK2 was over 3000 nM; at Citron kinase it was 40 nM; at ROCK-2, over 3000 nM; in [1] (HEK293T cells transfected with NanoLuc-CITK, Tracer K10 1 μM, 2 hours), 580 nM; against Mnk2 it was 1990 nM. For the same compound, the Kd (usually a measure of binding affinity in units of concentration) in experiment [1] was found to be 108 nM.
